Legend:
[1] = tested on: KCC2 protein; test: KCC2 immuno-staining morphometry of spinal cord dorsal horn; assay type: in vivo, mouse; details: KP 10 mg/kg; nerve constriction injury and CFA inflammatory pain models
Protocol: All mice were deeply anaesthetized with isoflurane and then transcardially perfused with ice-cold 4% paraformaldehyde in 0.1 M phosphate buffer, pH 7.4 (4% PFA). Dissected spinal cord samples were then post-fixed overnight in 4% PFA at 4° C., cryoprotected in a 20% sucrose solution in PBS at 4° C., frozen in Tissue-Tek OCT (Sakura), and stored at −80° C. until sectioning. Samples were sectioned at 20 μm using a cryostat (Microm HM 505N). The sections were blocked with 2% bovine serum albumin (BSA) in PBS with 0.3% Triton X-100 (Blocking solution) at room temperature for 1 h. The sections were treated with primary antibody in blocking solution at 4° C. overnight. The sections were washed three times followed by secondary antibody treatment at 4° C. for 2 hours. Anti-KCC2 antibody was validated as described above for immuno-cytochemistry. The goat anti-rabbit IgG Alexa Fluor 488 was obtained from Invitrogen (A-11008). […]
With the aforementioned findings and in view of the SCDH as the likely site of analgesic action of KP (Coull et al., 2003, Nature 424:938-942; Gagnon et al., 2013, Nat Med 19:1524-1528), SCDH KCC2 expression and function in nerve injury and response to KP was assessed. […] SCDH KCC2 protein expression was measured morphometrically after KCC2 immunolabeling using SCDH laminae I-II as the region-of-interest (FIG. 5B).

[2] = tested on: delta-cat binding to KCC2 promoter; test: ChIP with anti-delta-cat antibody at KCC2 promoter; assay type: cell-based, rat; details: KP-treatment vs vehicle
Protocol: ChIP assay was carried out as described previously (Yeo et al., 2009, J Neurosci 29:14652-14662; Yeo et al., 2013, Proc Natl Acad Sci USA 110:4315-4320). Primary cortical neurons (0.7×10^6) were used for each ChIP experiment. Cells were crosslinked with 1% formaldehyde for 30 min, washed twice with cold PBS, resuspended in lysis buffer [1% SDS, 10 mm EDTA, and 50 mm Tris-HCl, pH 8.0, with protease inhibitor cocktail (Roche)], and sonicated for 15 s pulses. The lysates were clarified by centrifugation at 10,000 rpm for 10 min at 4° C. in a microcentrifuge. One-tenth of the total lysate was used as input control of genomic DNA. Supernatants were collected and diluted in buffer (1% Triton X-100, 2 mm EDTA, 150 mm NaCl, 20 mm Tris-HCl, pH 8.0, and protease inhibitor cocktail) followed by immunoclearing with 1 mg of salmon sperm DNA, 10 ml of rabbit IgG, and 20 ml of protein A/G-Sepharose (Santa Cruz Biotechnology) for 1 h at 4° C. Immunoprecipitation was performed overnight at 4° C. with 2 mg of each specific antibody. Precipitates were washed sequentially for 10 min each in TSE1 buffer (0.1% SDS, 1% Triton X-100, 2 mm EDTA, 150 mm NaCl, and 20 mm Tris-HCl, pH 8.0), TSE2 (TSE1 with 500 mm NaCl), and TSE3 (0.25 m LiCl, 1% NP-40, 1% deoxycholate, 1 mm EDTA, and 10 mm Tris-HCl, pH 8.0). Precipitates were then washed twice with 10 mm Tris/0.1 mm EDTA, pH 7.8 and extracted with 1% SDS containing 0.1 m NaHCO3. Eluates were pooled and heated at 65° C. for 4 h to reverse formaldehyde crosslinking. DNA fragments were purified with Qiagen Qiaquick spin kit. For ChIP PCR, 1 l of a 25 l DNA extraction was used.
Consequently, catenins effects on the KCC2 promoter was explored.

[3] = tested on: mouse KCC2 promoter constructs; test: KCC2 promoter luciferase reporter assay in N2a cells; assay type: cell-based; details: KP 400 nM
Description: A fragment of the mouse KCC2 gene promoter (position −2052 […]) was amplified from genomic DNA prepared from cultured mouse primary glial cells. A 2.5 kb PCR fragment was cloned into the pGL4.17-Basic Vector (Promega) to generate the KCC2 promoter reporter construct. TCF and Kaiso binding sites were identified in this fragment. Using wild-type construct pGL4.17-KCC2 as a template, site-directed mutagenesis using Phusion DNA Polymerase enzyme (Thermo Fisher F549L) in conjunction with complementary primers bearing the specific mutation were used to mutate the Kaiso and TCF DNA-binding sites. PCR was followed by Dpn1 enzyme digestion to remove parental plasmid DNA. All constructs were verified by sequencing.
N2a cells were grown to 90% confluency in 24-well dishes in 0.4 mL of medium (DMEM, 2% Fetal Bovine Serum, 2 mM glutamine, 1% Non-essential amino acids, and 1% Penicillin/Streptomycin). Cells were transiently transfected using TurboFect reagent (Thermo Fisher R0531), with 500 ng of the pGL4.17-constructs plus 20 ng of the control Renilla plasmid (Promega, E2231) to normalize for transfection efficiency. Twenty-four hours after transfection, luminescence was measured using the Dual-Luciferase® Reporter Assay System (Promega) in a microplate luminometer (Veritas, Turner Biosystems). Mutant promoters were compared to WT, and the response of the respective promoter to KP (400 nM) was measured. Three independent transfection experiments were carried out and LUC assays were done in triplicates for each transfection. RLU is expressed as firefly luciferase activity relative to Renilla LUC activity.
Promoter expression constructs were built with rationally-targeted deletions to interrogate the effects of the Kaiso- and TCF-binding sites on activity of the KCC2 promoter and to determine if this activity was regulated by KP. For ease of transfection, key to this method, N2a neural cells were again used. The 5′ and 3′ delta-cat Kaiso binding sites functioned in repressive and enhancing manners, respectively (FIG. 11D).

Structure (SMILES): O=C1Cc2c([nH]c3ccc(Br)cc23)-c2ccccc2N1 [kenpaullone, 9-bromo-7,12-dihydro-indolo [3,2-d] [1]benzazepin-6(5H)-one]
- KCC2 protein expression in SCDH [1]: increases KCC2 protein expression
- binding of delta-cat to Kaiso1 site [2]: significantly reduced binding
- binding of delta-cat to Kaiso2 site [2]: significantly increases binding
- binding of delta-cat to TCF site [2]: non-significant increase
- KCC2 promoter LUC activity ([3]; Kaiso1 deletion (ΔK1) construct): significantly enhanced further
- KCC2 promoter LUC activity ([3]; TCF deletion constructs of FIG. 11C): did not increase
- KCC2 promoter LUC activity ([3]; deletion of both Kaiso sites): non-responsiveness
- KCC2 promoter LUC activity ([3]; triple-deletion of both Kaiso sites and TCF site): completely non-responsive

— US20220281930A1, “COMPOSITIONS AND METHODS FOR THE TREATMENT OF PATHOLOGICAL PAIN AND ITCH” (DUKE UNIVERSITY, priority 2019, published 2022)
